Data on 22 compounds can be found in paper PMC3569073 (Journal of medicinal chemistry, 2013).

Series [1] has as its target SARS-CoV 3CLpro (Severe acute respiratory syndrome coronavirus, UniProt P0C6X7). Briefly: biochemical. Format: biochemical. The note with it: for inhibition at 100 µM: read-out: 3CLpro inhibition level.
Series [2] can be described thus: physchem.
For series [3], the system named is 68 discrete GPCRs, ion channels and transporters. It is filed as binding. The note with it: 10 μM.
Series [4] deals with SARS-CoV. The note with it: cited from earlier work.
In series [5] the target is SARS 3CLpro. As to conditions: cited from earlier work.
Series [6] has as its target T1, 3CLpro enzyme from the mouse coronavirus MHV (Murine coronavirus, UniProt P0C6X9).
T1 sequence (P0C6X9 3334-3635 limits assumed): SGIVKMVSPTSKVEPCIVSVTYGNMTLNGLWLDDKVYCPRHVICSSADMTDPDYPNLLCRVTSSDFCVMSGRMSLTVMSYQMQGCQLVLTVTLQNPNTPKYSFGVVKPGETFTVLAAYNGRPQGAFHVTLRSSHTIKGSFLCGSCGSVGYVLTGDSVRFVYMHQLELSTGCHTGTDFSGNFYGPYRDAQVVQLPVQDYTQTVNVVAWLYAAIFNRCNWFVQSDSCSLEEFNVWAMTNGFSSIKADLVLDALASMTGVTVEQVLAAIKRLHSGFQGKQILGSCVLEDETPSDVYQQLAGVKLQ
It is filed as biochemical. The note with it: 100 μM.

The subject of series [7] is SARS-CoV infected Vero cells. As to conditions: cited from earlier work.
Series [8] has as its target T2, 3CLpro enzyme from the human coronavirus HKU1 (Human coronavirus HKU1, UniProt P0C6X2).
T2 sequence (P0C6X2 3335-3637 limits assumed): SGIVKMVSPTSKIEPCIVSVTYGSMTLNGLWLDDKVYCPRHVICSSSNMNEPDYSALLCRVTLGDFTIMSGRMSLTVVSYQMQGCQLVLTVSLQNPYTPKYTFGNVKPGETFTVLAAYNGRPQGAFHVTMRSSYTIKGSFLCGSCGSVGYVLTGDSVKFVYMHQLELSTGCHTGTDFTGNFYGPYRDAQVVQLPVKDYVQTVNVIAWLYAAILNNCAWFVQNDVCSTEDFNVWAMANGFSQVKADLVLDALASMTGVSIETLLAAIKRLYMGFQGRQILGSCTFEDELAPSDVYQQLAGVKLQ
Format: biochemical. As to conditions: 100 μM.

Where “and” joins values, the source holds several entries; their conditions need not be identical. Identical values can stand only once. Like-named read-outs stand apart in the source and are kept apart here. A value given as a limit tells only on which side of the number the result lay.

Usually IC50 stands for the midpoint of a concentration-inhibition curve. With `CC(C)(C)NC(=O)C(c1cccnc1)N(C(=O)C1CCCO1)c1ccc(C(C)(C)C)cc1` (stereo not shown) [Compound 32], in series [1], the IC50 was greater than 50000 nM and the “fold loss of 3CLpro activity relative to furan 16” value is given as greater than 10 fold.
By solubility is commonly meant how much of the substance goes into solution per volume. For the compound `CC(C)(C)NC(=O)[C@@H](c1cccnc1)N(C(=O)c1ccco1)c1ccc(C(C)(C)C)cc1` [16-(R), (R)-N-(4-(tert-butyl)phenyl)-N-(2-(tert-butylamino)-2-oxo-1-(pyridin-3-yl)ethyl)furan-2-carboxamide], the solubility in series [2] was ≤ 95 µg/mL and ≤ 219 µM. Besides, in series [3], the “activity in lead-profiling screen” value is on record as less than 50%.
`CC(C)(C)NC(=O)C(c1cnccn1)N(C(=O)c1ccco1)c1ccc(C(C)(C)C)cc1` (stereo not shown) [Compound 54]: in series [1], the “3CLpro inhibition, SAR result in words” value is reported as “well tolerated”.
The same measure, in the same setting: for `Cc1ccoc1C(=O)N(c1ccc(C(C)(C)C)cc1)C(C(=O)NC(C)(C)C)c1cccnc1` (stereo not shown) [Compound 26] the value was “negatively impacted activity”.
In the case of `CC(C)(C)NC(=O)C(c1cccnc1)N(C(=O)c1cccs1)c1ccc(C(C)(C)C)cc1` (stereo not shown) [Compound 27, N-(4-(tert-butyl)phenyl)-N-(2-(tert-butylamino)-2-oxo-1-(pyridin-3-yl)ethyl)thiophene-2-carboxamide], in series [1], the “3CLpro inhibition, SAR result in words” value was “weakly tolerated” and the “fold loss of 3CLpro activity relative to furan 16” value was 10 fold.
In the case of `CC(C)(C)NC(=O)C(c1ccsc1)N(C(=O)c1ccco1)c1ccc(C(C)(C)C)cc1` (stereo not shown) [Compound 20, N-(4-(tert-butyl)phenyl)-N-(2-(tert-butylamino)-2-oxo-1-(thiophen-3-yl)ethyl)furan-2-carboxamide], the “3CLpro inhibition, SAR result in words” value in series [1] was “complete loss of inhibition activity”.
`CC(C)(C)NC(=O)C(c1cccnc1)N(C(=O)c1c[nH]cn1)c1ccc(C(C)(C)C)cc1` (stereo not shown) [Compound 31, N-(4-(tert-butyl)phenyl)-N-(2-(tert-butylamino)-2-oxo-1-(pyridin-3-yl)ethyl)-1H-imidazole-4-carboxamide]: in series [1], the “3CLpro inhibition, SAR result in words” value was “nearly equipotent”.
Same read-out and setting: the result for `Cc1ccc(C(C(=O)NC(C)(C)C)N(C(=O)c2ccco2)c2ccc(C(C)(C)C)cc2)cn1` (stereo not shown) [Compound 55, N-(4-(tert-butyl)phenyl)-N-(2-(tert-butylamino)-1-(6-methylpyridin-3-yl)-2-oxoethyl)furan-2-carboxamide] reads “not permitted”; that for `CC(C)(C)NC(=O)C(c1ccncc1)N(C(=O)c1ccco1)c1ccc(C(C)(C)C)cc1` (stereo not shown) [Compound 56], “weak inhibitors”.
Same read-out and setting: the result for `CC(C)(C)NC(=O)C(c1cccnc1)N(C(=O)Cc1cnc[nH]1)c1ccc(C(C)(C)C)cc1` (stereo not shown) [Compound 51] reads “deleterious for inhibition”.
The same measure, in the same setting: for `CC(C)(C)NC(=O)C(c1cccnc1)N(C(=O)c1ccco1)c1ccc(F)cc1` (stereo not shown) [Compound 19, N-(2-(tert-butylamino)-2-oxo-1-(pyridin-3-yl)ethyl)-N-(4-fluorophenyl)furan-2-carboxamide] the value was “deleterious for inhibition”.
Broadly, the EC50 is the concentration needed to bring the measured effect to its halfway point. In general, Ki refers to a dissociation constant, usually derived from enzyme kinetics or from competition with a known ligand. For the compound `CC[C@H](NC(=O)[C@@H](NC(=O)OCc1ccccc1)[C@@H](C)OC(C)(C)C)C(=O)N[C@H](C=O)C[C@@H]1CCNC1=O` [TG-0205221], the EC50 in series [4] was 600 nM. Also, the Ki in series [5] was 52 nM.
For the compound `CC(C)(C)NC(=O)C(c1cccnc1)N(C(=O)c1ccco1)C1CC1` (stereo not shown) [Compound 18, N-(2-(tert-butylamino)-2-oxo-1-(pyridin-3-yl)ethyl)-N-cyclopropylfuran-2-carboxamide], the “3CLpro inhibition, SAR result in words” value in series [1] was “deleterious for inhibition”.
For `CCC(C)c1ccc(N(C(=O)c2ccco2)C(C(=O)NC2CCCC2)c2cccnc2)cc1` (stereo not shown) [Compound 14], in series [1], the IC50 was less than 10000 nM.
Turning to `Cn1cnc(C(=O)N(c2ccc(C(C)(C)C)cc2)C(C(=O)NC(C)(C)C)c2cccnc2)c1` (stereo not shown) [Compound 52, N-(4-(tert-butyl)phenyl)-N-(2-(tert-butylamino)-2-oxo-1-(pyridin-3-yl)ethyl)-1-methyl-1H-imidazole-4-carboxamide], the “fold loss of 3CLpro activity relative to imidazole 31” value in series [1] is greater than 10 fold.
Turning to `CN(C)CCCSc1ccccc1NC(=O)/C=C/c1ccccc1` [cinanserin], the “inhibition of MHV 3CLpro” value in series [6] is listed as “no inhibition”. The “reduction of viral RNA in cell culture media” value in series [7] is recorded as 3 log. In addition, in series [1] (100 μM), the “inhibition of SARS-CoV 3CLpro” value was “no inhibition” and the “inhibition of authentic SARS-CoV 3CLpro” value was “no inhibition”. Further, in series [8], the “inhibition of HKU1 3CLpro” value is on record as “no inhibition”.
For the compound `CC(C)(C)NC(=O)C(c1cccnc1)N(C(=O)c1ccc[nH]1)c1ccc(C(C)(C)C)cc1` (stereo not shown) [Compound 37], the “3CLpro inhibition, SAR result in words” value in series [1] was “completely inactive”.
On the same count and under the same terms, for `Cc1ccc(C(=O)N(c2ccc(C(C)(C)C)cc2)C(C(=O)NC(C)(C)C)c2cccnc2)o1` (stereo not shown) [Compound 21] the value was “negatively impacted activity”.
A word on the inhibition: it is the drop in the measured response relative to a control, in per cent. For `CC(C)c1ccc(N(C(=O)c2ccco2)C(C(=O)NC(C)(C)C)c2cccnc2)cc1` (stereo not shown) [Compound 17, N-(2-(tert-butylamino)-2-oxo-1-(pyridin-3-yl)ethyl)-N-(4-isopropylphenyl)furan-2-carboxamide], the IC50 in series [1] (read-out: 3CLpro IC50) was less than 50000 nM. In addition, the inhibition at 100 µM in series [1] was greater than 50%.
For `CC(C)(C)NC(=O)C(c1cccnc1)N(C(=O)c1ccc(Cl)o1)c1ccc(C(C)(C)C)cc1` (stereo not shown) [Compound 50], the “3CLpro inhibition, SAR result in words” value in series [1] is reported as “nearly equipotent to 16”.
For the compound `CC(C)(C)NC(=O)C(c1cccnc1)N(C(=O)c1ccco1)c1ccc(C(C)(C)C)cc1` (stereo not shown) [Compound 16], the inhibition at 100 µM in series [1] is greater than 50%.
In the case of `CC(C)(C)NC(=O)C(c1ccnnc1)N(C(=O)c1ccco1)c1ccc(C(C)(C)C)cc1` (stereo not shown) [Compound 53], the “3CLpro inhibition, SAR result in words” value in series [1] is “well tolerated”.
